# How the values were obtained:
# C2C12 muscle cells = assay: Analysis of glucose absorption (2-deoxyglucose) in differentiated C2C12 muscle cells; type: cell-based; settings: test materials 10 μM, times relative to control group
# Procedure, shortened: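 Differentiated C2C12 myotubes (6 days in 1% serum) held 3 h in KRB with 5 mM glucose, then given test material at 10 μM. After 30 min, 0.2 μCi 2-deoxyglucose added for 20 min; uptake measured by radioactive counting of NaOH lysates.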
# AMPK = assay: Measurement of AMPK activity by Western blot in C2C12 cells; type: cell-based; parameters: key to AMPK activity (degree of phosphorylation of serine-79 and threonine-172): fold increase in threonine-172 phosphorylation; AMPK activity (degree of phosphorylation of serine-79): unit not given here; settings: 10 μM for 50 minutes; for AMPK activity (degree of phosphorylation of serine-79 and threonine-172): no superscript: Western blot of serine-79 and threonine-172 phosphorylation; for AMPK activity (class: degree of phosphorylation of threonine-172): strong/mild/weak; for AMPK activity (degree of phosphorylation of serine-79): footnote a: Western blot of serine-79 phosphorylation
# Procedure, shortened: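 Differentiated C2C12 cells were exposed to test material at 10 μM for 50 minutes, then lysed. AMPK activity was taken from Western blots of Thr-172 phosphorylation and acetyl CoA carboxylase Ser-79 phosphorylation, with ERK as loading reference. Thr-172 rise was graded strong (≥3-fold), mild (1-3-fold) or weak (<1-fold).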
SMILES,Glucose absorption (C2C12 muscle cells),AMPK activity (degree of phosphorylation of serine-79 and threonine-172) (AMPK),AMPK activity (class: degree of phosphorylation of threonine-172) (AMPK),AMPK activity (degree of phosphorylation of serine-79) (AMPK)
"CC(C)c1nc(NCc2ccc3c(c2)OCO3)c2ccccc2n1 [Compound 182, Benzo[1,3]dioxol-5-ylmethyl-(2-isopropylquinazolino-4-yl)-amine]",3.1,2.9,strong (“strong” means that the degree of phosphorylation of threonine-172 increased by 3 times or more),
"c1ccc(-c2nc(NCCN3CCOCC3)c3ccccc3n2)cc1 [Compound 106, (2-Morpholino-4-ylethyl)-(2-phenylquinazolino-4-yl)-amine]",1.8,1.3,mild (“mild” means that the degree of phosphorylation of threonine-172 increased by 1 to 3 times),
"COc1cc(CNc2ncnc3ccccc23)cc(OC)c1 [Compound 409, (3,5-Dimethoxybenzyl)-quinazolino-4-ylamine]",1.6,3.3,,
"Fc1ccc(CCNc2nc(-c3ccccc3)nc3ccccc23)cc1F [Compound 128, [2-(3,4-Difluorophenyl)-ethyl]-(2-phenylquinazolino-4-yl)-amine]",2.3,1.7,strong (“strong” means that the degree of phosphorylation of threonine-172 increased by 3 times or more),
"COc1ccc(CNc2nc(-c3ccccc3)nc3ccccc23)c(OC)c1 [Compound 144, (2,4-Dimethoxybenzyl)-(2-phenylquinazolino-4-yl)-amine]",1.3,2.1,strong (“strong” means that the degree of phosphorylation of threonine-172 increased by 3 times or more),
"COc1ccc(CNc2nc(N3CCOCC3)nc3ccccc23)c(OC)c1 [Compound 293, (2,4-Dimethoxybenzyl)-(2-morpholino-4-ylquinazolino-4-yl)-amine]",0.6,0.1,,
"CC(C)c1nc(NCCc2ccccc2)c2ccccc2n1 [Compound 179, (2-Isopropylquinazolino-4-yl)-phenethylamine]",2.9,3.8,strong (“strong” means that the degree of phosphorylation of threonine-172 increased by 3 times or more),
"Clc1ccccc1CCNc1nc(-c2ccccc2)nc2ccccc12 [Compound 151, [2-(2-Chlorophenyl)-ethyl]-(2-phenylquinazolino-4-yl)-amine]",1.3,1.8,strong (“strong” means that the degree of phosphorylation of threonine-172 increased by 3 times or more),
"COc1cc(CNc2nc(N3CCN(C)CC3)nc3ccccc23)cc(OC)c1 [Compound 306, (3,5-Dimethoxybenzyl)-[2-(4-methylpiperazino-1-yl)-quinazolino-4-yl]-amine]",0.8,1.7,,
"COc1ccc(CNc2nc(C(C)c3ccccc3)nc3ccccc23)cc1OC (centres unmarked) [Compound 377, (3,4-Dimethoxybenzyl)-[2-(1-phenylethyl)-quinazolino-4-yl]-amine]",1.1,2.3,,
"COc1ccccc1CNc1nc(C(OC)c2ccccc2)nc2ccccc12 (centres unmarked) [Compound 360, (2-Methoxybenzyl)-[2-(methoxyphenylmethyl)-quinazolino-4-yl]-amine]",1.4,2.2,,
"COc1cc(CNc2nc(-c3ccco3)nc3ccccc23)cc(OC)c1 [Compound 343, (3,5-Dimethoxybenzyl)-(2-furano-2-ylquinazolino-4-yl)-amine]",1.3,0.8,,
"c1ccc2c(NCc3ccc4c(c3)OCO4)nc(N3CCCC3)nc2c1 [Compound 307, Benzo[1,3]dioxol-5-ylmethyl-(2-pyrrolidino-1-ylquinazolino-4-yl)-amine]",0.8,2.0,,
"CC(C)(C)c1nc(NCCCCc2ccccc2)c2ccccc2n1 [Compound 192, (2-tert-Butylquinazolino-4-yl)-(4-phenylbutyl)-amine]",2.1,6.5,strong (“strong” means that the degree of phosphorylation of threonine-172 increased by 3 times or more),
"COc1ccc(CNc2ncnc3ccccc23)cc1 [Compound 406, (4-Methoxybenzyl)-quinazolino-4-ylamine]",2.1,1.5,,
"c1ccc(-c2nc(NCc3ccc4c(c3)OCO4)c3ccccc3n2)nc1 [Compound 230, Benzo[1,3]dioxol-5-ylmethyl-(2-pyridino-2-ylquinazolino-4-yl)-amine]",1.7,4.9,strong (“strong” means that the degree of phosphorylation of threonine-172 increased by 3 times or more),
"O=[N+]([O-])c1cccc(CNc2nc(-c3ccccc3)nc3ccccc23)c1 [Compound 116, (3-Nitrobenzyl)-(2-phenylquinazolino-4-yl)-amine]",2.5,2.0,strong (“strong” means that the degree of phosphorylation of threonine-172 increased by 3 times or more),
"COc1cc(OC)c(CNc2nc(C3CC3)nc3ccccc23)c(OC)c1 [Compound 392, (2-Cyclopropylquinazolino-4-yl)-(2,4,6-trimethoxybenzyl)-amine]",1.1,2.7,,
"COc1cccc(CNc2ncnc3ccccc23)c1 [Compound 405, (3-Methoxybenzyl)-quinazolino-4-ylamine]",2.2,2.7,,
"CC(C)(C)c1nc(NCCc2ccccc2)c2ccccc2n1 [Compound 191, (2-tert-Butylquinazolino-4-yl)-phenethylamine]",2.4,5.2,strong (“strong” means that the degree of phosphorylation of threonine-172 increased by 3 times or more),
"COc1ccc(OC)c(CNc2nc(C(C)c3ccccc3)nc3ccccc23)c1 (centres unmarked) [Compound 380, (2,5-Dimethoxybenzyl)-[2-(1-phenylethyl)-quinazolino-4-yl]-amine]",1.0,1.9,,
"CCSc1nc(NCCN2CCOCC2)c2ccccc2n1 [Compound 11, (2-Ethylsulfanylquinazolino-4-yl)-(2-morpholino-4-ylethyl)-amine]",1.0,,,3.2^a
"c1ccc(-c2nc(NCc3cccnc3)c3ccccc3n2)cc1 [Compound 111, (2-Phenylquinazolino-4-yl)-pyridino-3-ylmethylamine]",2.4,1.8,strong (“strong” means that the degree of phosphorylation of threonine-172 increased by 3 times or more),
"COc1ccc(OC)c(CNc2ncnc3ccccc23)c1 [Compound 413, (2,5-Dimethoxybenzyl)-quinazolino-4-ylamine]",1.2,1.7,,
"CC(Nc1nc(C(Cl)(Cl)Cl)nc2ccccc12)c1ccccc1 (centres unmarked) [Compound 5, (1-Phenylethyl)-(2-trichloromethylquinazolino-4-yl)-amine]",0.9,,,4.7^a
"c1ccc(-c2nc(NC3CC3)c3ccccc3n2)cc1 [Compound 110, Cyclopropyl-(2-phenylquinazolino-4-yl)-amine]",2.0,1.6,strong (“strong” means that the degree of phosphorylation of threonine-172 increased by 3 times or more),
"c1ccc(CCNc2nc(-c3ccccn3)nc3ccccc23)cc1 [Compound 227, Phenethyl-(2-pyridino-2-ylquinazolino-4-yl)-amine]",1.6,4.9,strong (“strong” means that the degree of phosphorylation of threonine-172 increased by 3 times or more),
"COc1ccc(CNc2nc(C3CC3)nc3ccccc23)c(OC)c1 [Compound 390, (2-Cyclopropylquinazolino-4-yl)-(2,4-dimethoxybenzyl)-amine]",1.1,3.8,,
"COc1cc(CNc2nc(-c3ccco3)nc3ccccc23)cc(OC)c1OC [Compound 345, (2-Furano-2-ylquinazolino-4-yl)-(3,4,5-trimethoxybenzyl)-amine]",1.3,1.1,,
